Measured values taken from patent US11485742B2, “2-azaspiro[3.4]octane derivatives as M4 agonists” (NOVARTIS AG, priority 2019, dated 2022).

Tests used:
[1] = target: T1, human cloned CHRM4 receptor (Homo sapiens, UniProt P08173); assay: CHRM4 Ca++ Flux Assay (M4_CHO cells, agonist mode); type: cell-based; conditions: for Emax: Percent Activity (PA), read-out: M4 FDSS PA %; for EC50: geometric mean if tested more than once, read-out: M4 FDSS EC50
T1 construct: expressed in transfected cells; host or cells: CHO-K1 (M4_CHO)
T1 sequence (P08173 1-479): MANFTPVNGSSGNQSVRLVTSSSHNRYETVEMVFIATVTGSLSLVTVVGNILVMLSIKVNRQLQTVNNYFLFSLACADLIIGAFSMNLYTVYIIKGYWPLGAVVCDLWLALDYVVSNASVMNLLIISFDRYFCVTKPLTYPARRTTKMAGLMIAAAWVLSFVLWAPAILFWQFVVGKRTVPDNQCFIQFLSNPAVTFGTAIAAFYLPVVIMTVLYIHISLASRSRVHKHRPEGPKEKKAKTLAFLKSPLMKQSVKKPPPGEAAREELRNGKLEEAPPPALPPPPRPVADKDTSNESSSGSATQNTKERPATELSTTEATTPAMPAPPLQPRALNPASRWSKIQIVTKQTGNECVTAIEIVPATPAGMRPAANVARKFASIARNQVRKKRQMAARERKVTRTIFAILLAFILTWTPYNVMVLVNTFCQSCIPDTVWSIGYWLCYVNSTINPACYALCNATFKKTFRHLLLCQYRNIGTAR
Procedure, shortened: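 Agonist-mode calcium flux in an M4-expressing CHO-K1 line: compounds were dosed at 11 points in triplicate and fluorescence was tracked for 3 min. Cells were preloaded with Ca++ dye and kept in −Ca/−Mg HBSS with 20 μM ATP for 60 min. Efficacy is scaled to carbachol EC100; EC50s come from four-parameter regression, geometric mean across runs.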

[2] = target: T2, human cloned CHRM5 receptor (Homo sapiens, UniProt P08912); assay: CHRM5 Ca++ Flux Assay (M5_CHO cells, agonist mode); type: cell-based; conditions: for Emax: Percent Activity (PA) measured to EC100 of Carbachol, read-out: M5 FDSS PA %; for EC50: agonist mode, geometric mean if tested more than once, read-out: M5 FDSS EC50
T2 construct: expressed in transfected cells; host or cells: CHO (M5_CHO)
T2 sequence (P08912 1-532): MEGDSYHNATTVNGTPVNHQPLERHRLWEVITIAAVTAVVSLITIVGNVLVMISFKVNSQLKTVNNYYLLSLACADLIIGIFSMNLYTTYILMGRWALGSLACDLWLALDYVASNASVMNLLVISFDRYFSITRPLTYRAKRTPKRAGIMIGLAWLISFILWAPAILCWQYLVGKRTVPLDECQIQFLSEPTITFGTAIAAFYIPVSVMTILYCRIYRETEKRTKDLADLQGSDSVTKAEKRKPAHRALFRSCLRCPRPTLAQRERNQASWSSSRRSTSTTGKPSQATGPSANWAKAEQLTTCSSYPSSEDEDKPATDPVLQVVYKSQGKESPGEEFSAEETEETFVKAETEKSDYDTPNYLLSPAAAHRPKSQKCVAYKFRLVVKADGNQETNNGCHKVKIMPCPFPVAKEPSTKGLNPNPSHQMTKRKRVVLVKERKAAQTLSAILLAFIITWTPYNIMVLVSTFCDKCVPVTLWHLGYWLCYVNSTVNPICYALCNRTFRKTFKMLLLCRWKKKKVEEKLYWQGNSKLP
Procedure, shortened: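 Agonist-mode calcium mobilisation: compounds, 11 concentrations in triplicate, applied to stable M3_CHO or M5_CHO cells loaded with Ca++ dye, fluorescence followed 3 min. Efficacy expressed against carbachol EC100; EC curves by four-parameter nonlinear regression, geometric mean across independent runs.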

Row | Emax [1] | EC50 [1] | Emax [2] | EC50 [2] | Structure (SMILES)
1 | 74% | 44 nM | 0% | > 25 µM | Fc1ccc(OC2CC3(COC3)C2)c(C2CCN([C@@H]3COC4(C3)CN(c3ncon3)C4)CC2)c1 [Example 6C, (S)-7-(4-(2-((2-oxaspiro[3.3]heptan-6-yl)oxy)-5-fluorophenyl)piperidin-1-yl)-2-(1,2,4-oxadiazol-3-yl)-5-oxa-2-azaspiro[3.4]octane]
2 | 42% | 1410 nM | 0% | > 25 µM | Fc1ccc(OC2CC3(COC3)C2)c(C2CCN([C@H]3COC4(C3)CN(c3nnco3)C4)CC2)c1 [Example 7A, (R)-7-(4-(2-((2-oxaspiro[3.3]heptan-6-yl)oxy)-5-fluorophenyl)piperidin-1-yl)-2-(1,3,4-oxadiazol-2-yl)-5-oxa-2-azaspiro[3.4]octane]
